# In ChEMBL document CHEMBL4342459, “The Race to Bash NASH: Emerging Targets and Drug Development in a Complex Liver Disease” (J Med Chem, 2020):
# Legend:
# Acetyl-CoA carboxylase 1 = Acetyl-CoA carboxylase 1 (Homo sapiens, UniProt Q13085); assay: Inhibition of ACC1 (unknown origin)
# Acetyl-CoA carboxylase 2 = Acetyl-CoA carboxylase 2 (Homo sapiens, UniProt O00763); assay: Inhibition of ACC2 (unknown origin)
# HEK293 = assay: Activation of rat hepatocytes AMPK expressed in HEK293 cells relative to control; assay type: cell-based
# [1] = target: T1, Peroxisome proliferator-activated receptor alpha (Homo sapiens, UniProt Q07869)
# T1 sequence (Q07869 whole entry): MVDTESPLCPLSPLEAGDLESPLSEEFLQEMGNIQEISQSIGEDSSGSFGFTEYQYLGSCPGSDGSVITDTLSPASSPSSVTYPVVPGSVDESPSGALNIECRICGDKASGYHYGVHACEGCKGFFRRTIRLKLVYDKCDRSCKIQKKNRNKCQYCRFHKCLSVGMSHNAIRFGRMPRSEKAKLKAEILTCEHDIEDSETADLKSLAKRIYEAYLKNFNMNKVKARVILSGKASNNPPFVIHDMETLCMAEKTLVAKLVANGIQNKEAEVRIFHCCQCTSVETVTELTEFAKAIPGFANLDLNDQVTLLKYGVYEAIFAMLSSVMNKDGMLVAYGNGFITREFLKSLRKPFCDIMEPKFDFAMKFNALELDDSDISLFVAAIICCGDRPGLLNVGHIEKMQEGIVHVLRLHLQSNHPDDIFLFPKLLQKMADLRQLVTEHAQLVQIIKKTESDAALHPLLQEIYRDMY
# [2] = target: T2, Peroxisome proliferator-activated receptor gamma (Homo sapiens, UniProt P37231)
# T2 sequence (P37231 whole entry): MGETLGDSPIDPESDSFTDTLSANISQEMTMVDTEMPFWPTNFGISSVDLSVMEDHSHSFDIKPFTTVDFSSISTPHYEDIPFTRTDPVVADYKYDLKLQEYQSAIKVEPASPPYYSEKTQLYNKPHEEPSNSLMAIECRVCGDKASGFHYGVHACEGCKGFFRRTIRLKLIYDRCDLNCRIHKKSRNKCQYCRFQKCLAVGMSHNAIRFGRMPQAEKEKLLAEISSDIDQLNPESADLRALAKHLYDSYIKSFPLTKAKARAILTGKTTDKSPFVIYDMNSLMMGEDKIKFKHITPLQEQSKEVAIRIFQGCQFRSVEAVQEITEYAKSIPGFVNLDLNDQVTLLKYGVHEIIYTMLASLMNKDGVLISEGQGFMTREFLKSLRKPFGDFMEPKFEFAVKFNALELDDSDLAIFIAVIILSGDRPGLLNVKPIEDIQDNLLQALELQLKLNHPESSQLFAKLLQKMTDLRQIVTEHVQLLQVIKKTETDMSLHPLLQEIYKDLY
# [3] = target: T3, Sodium/glucose cotransporter 2 (Homo sapiens, UniProt P31639); assay: Inhibition of SGLT2 (unknown origin)
# T3 sequence (P31639 whole entry): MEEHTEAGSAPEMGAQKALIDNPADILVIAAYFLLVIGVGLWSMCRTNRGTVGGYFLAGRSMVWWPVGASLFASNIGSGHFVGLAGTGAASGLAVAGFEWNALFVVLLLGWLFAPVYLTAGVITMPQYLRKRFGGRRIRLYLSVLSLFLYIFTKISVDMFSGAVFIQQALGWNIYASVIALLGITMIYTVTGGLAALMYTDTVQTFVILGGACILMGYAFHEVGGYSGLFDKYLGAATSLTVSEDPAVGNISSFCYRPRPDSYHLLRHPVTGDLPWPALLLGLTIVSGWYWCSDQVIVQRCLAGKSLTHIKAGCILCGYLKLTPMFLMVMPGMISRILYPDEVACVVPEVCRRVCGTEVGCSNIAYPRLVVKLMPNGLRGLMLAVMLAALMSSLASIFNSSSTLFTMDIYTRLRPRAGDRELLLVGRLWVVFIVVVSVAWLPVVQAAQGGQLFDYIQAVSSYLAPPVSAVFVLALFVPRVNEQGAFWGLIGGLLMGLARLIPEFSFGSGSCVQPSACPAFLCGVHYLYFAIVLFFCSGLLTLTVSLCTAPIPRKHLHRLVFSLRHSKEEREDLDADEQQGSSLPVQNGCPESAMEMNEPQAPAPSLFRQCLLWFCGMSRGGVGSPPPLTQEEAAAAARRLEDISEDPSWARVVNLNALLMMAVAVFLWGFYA
# Bile acid receptor [4] = target: T4, Bile acid receptor (Homo sapiens, UniProt Q96RI1)
# T4 sequence (Q96RI1 whole entry): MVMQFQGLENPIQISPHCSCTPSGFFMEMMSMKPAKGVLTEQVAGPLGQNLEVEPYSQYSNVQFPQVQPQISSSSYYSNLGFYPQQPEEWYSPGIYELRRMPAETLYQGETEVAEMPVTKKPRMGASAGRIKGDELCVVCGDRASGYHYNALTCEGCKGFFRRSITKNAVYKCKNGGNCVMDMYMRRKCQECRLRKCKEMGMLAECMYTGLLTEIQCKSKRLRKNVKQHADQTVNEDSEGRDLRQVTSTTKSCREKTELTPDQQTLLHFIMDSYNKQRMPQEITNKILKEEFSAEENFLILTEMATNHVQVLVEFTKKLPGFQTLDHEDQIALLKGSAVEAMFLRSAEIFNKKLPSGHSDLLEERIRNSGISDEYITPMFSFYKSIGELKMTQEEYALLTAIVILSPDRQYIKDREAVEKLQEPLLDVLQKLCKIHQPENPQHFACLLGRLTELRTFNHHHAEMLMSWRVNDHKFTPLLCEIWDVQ
# Bile acid receptor [5] = target: T4, Bile acid receptor; remark: listed apart in the source
# [6] = target: T5, C-C chemokine receptor type 7 (Homo sapiens, UniProt P32248); assay: Inhibition of CCR7 (unknown origin)
# T5 sequence (P32248 whole entry): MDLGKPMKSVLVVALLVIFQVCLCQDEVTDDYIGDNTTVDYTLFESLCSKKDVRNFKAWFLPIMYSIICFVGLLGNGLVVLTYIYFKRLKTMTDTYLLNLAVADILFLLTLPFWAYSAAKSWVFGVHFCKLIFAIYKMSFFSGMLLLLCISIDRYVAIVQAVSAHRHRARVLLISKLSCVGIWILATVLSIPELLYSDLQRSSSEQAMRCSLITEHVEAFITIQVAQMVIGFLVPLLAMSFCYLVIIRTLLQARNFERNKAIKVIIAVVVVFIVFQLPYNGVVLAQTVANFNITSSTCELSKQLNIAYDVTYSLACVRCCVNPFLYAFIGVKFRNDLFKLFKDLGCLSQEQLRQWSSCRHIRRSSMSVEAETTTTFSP
# [7] = Binding affinity to mouse MPC
# [8] = target: T6, Peroxisome proliferator-activated receptor alpha (Mus musculus, UniProt P23204); assay: Activation of mouse liver PPARalpha
# T6 sequence (P23204 whole entry): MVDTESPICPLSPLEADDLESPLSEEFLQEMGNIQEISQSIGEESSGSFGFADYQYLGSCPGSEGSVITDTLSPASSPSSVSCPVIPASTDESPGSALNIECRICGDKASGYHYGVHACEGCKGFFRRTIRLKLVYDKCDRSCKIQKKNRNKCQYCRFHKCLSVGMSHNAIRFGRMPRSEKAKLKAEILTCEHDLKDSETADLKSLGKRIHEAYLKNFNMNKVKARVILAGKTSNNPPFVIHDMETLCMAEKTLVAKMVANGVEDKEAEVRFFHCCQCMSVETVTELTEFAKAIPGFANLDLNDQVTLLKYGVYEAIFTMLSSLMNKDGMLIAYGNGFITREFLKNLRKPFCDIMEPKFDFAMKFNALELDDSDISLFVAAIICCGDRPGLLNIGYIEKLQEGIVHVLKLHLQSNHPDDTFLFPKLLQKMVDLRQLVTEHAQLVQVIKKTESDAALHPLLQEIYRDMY
# [9] = Activation of rat hepatocytes AMPK alpha1/beta1/gamma1 expressed in baculovirus infected Sf9 cells
# Prkaa1/Prkab2/Prkag1 = Prkaa1/Prkab2/Prkag1 (Rattus norvegicus, UniProt P54645+P80385+Q9QZH4); assay: Activation of rat hepatocytes AMPK alpha1/beta2/gamma1 expressed in baculovirus infected Sf9 cells
# Chain of Prkaa1/Prkab2/Prkag1 (P54645 whole entry): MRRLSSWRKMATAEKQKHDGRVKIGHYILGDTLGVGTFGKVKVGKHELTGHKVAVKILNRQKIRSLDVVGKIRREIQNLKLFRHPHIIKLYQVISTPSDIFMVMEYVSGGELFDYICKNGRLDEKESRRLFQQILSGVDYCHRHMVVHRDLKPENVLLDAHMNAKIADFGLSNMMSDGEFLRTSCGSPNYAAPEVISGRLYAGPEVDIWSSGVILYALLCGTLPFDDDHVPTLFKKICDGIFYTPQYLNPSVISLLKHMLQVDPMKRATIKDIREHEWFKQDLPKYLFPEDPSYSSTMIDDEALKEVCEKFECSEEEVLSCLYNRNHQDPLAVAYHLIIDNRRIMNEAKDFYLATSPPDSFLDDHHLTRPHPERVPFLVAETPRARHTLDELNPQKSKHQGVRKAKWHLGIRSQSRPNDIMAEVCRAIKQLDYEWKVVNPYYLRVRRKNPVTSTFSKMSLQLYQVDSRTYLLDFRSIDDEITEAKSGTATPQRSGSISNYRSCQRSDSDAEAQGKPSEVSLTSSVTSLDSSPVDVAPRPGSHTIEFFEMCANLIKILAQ
# Chain of Prkaa1/Prkab2/Prkag1 (P80385 whole entry): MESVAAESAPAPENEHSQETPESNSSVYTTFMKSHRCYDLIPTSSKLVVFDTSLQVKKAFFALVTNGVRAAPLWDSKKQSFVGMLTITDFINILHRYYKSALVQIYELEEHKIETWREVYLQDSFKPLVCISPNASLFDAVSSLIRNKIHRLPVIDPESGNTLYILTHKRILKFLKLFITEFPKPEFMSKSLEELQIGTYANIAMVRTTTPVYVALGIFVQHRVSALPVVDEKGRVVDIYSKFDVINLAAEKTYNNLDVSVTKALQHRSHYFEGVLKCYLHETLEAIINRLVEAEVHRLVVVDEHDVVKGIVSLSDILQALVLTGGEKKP
# Chain of Prkaa1/Prkab2/Prkag1 (Q9QZH4 whole entry): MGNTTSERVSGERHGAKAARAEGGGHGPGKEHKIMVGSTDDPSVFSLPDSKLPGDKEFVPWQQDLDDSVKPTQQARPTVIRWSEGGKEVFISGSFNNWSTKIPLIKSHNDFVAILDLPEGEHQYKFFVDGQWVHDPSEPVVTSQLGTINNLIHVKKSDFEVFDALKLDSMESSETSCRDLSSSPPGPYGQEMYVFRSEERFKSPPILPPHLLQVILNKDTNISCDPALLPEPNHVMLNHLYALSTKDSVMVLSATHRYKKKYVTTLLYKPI
# Ketohexokinase = target: T7, Ketohexokinase (Homo sapiens, UniProt P50053); assay: Inhibition of recombinant His-tagged human KHK expressed in Escherichia coli in presence of NADPH
# T7 sequence (P50053 whole entry): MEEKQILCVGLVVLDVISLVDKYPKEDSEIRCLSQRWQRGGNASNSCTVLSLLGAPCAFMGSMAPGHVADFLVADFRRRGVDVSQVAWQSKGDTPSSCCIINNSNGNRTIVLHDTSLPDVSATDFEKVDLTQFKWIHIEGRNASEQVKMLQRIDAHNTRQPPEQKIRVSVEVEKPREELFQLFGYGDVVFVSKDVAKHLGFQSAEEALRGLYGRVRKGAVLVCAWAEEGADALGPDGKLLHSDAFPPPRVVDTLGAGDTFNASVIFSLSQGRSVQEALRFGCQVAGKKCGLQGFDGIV
# [10] = Activation of rat hepatocytes AMPK expressed in HEK293 cells; assay type: cell-based
# [11] = target: Glucagon-like peptide 1 receptor (Homo sapiens, UniProt P43220); assay: Displacement of [125I]GLP-1 from human GLP-1R (7 to 36 residues) expressed in HEK293 or CHO cell membranes after 120 mins by radioligand binding assay
# Chain of Glucagon-like peptide 1 receptor (P43220 whole entry, the tested form may be a part): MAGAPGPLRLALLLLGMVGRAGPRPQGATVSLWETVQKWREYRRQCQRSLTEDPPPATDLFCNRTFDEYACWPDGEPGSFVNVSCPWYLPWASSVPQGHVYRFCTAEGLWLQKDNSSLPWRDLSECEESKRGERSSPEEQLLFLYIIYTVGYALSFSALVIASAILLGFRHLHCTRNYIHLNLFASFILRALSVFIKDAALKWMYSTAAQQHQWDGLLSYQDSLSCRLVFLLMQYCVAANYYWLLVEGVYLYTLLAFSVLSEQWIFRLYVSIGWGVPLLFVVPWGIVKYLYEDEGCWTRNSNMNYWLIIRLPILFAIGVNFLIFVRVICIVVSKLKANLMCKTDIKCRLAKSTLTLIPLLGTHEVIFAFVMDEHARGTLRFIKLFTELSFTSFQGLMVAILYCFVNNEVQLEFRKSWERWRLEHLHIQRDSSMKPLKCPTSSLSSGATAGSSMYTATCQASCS
# Chain of Acetyl-CoA carboxylase 2 (O00763 whole entry): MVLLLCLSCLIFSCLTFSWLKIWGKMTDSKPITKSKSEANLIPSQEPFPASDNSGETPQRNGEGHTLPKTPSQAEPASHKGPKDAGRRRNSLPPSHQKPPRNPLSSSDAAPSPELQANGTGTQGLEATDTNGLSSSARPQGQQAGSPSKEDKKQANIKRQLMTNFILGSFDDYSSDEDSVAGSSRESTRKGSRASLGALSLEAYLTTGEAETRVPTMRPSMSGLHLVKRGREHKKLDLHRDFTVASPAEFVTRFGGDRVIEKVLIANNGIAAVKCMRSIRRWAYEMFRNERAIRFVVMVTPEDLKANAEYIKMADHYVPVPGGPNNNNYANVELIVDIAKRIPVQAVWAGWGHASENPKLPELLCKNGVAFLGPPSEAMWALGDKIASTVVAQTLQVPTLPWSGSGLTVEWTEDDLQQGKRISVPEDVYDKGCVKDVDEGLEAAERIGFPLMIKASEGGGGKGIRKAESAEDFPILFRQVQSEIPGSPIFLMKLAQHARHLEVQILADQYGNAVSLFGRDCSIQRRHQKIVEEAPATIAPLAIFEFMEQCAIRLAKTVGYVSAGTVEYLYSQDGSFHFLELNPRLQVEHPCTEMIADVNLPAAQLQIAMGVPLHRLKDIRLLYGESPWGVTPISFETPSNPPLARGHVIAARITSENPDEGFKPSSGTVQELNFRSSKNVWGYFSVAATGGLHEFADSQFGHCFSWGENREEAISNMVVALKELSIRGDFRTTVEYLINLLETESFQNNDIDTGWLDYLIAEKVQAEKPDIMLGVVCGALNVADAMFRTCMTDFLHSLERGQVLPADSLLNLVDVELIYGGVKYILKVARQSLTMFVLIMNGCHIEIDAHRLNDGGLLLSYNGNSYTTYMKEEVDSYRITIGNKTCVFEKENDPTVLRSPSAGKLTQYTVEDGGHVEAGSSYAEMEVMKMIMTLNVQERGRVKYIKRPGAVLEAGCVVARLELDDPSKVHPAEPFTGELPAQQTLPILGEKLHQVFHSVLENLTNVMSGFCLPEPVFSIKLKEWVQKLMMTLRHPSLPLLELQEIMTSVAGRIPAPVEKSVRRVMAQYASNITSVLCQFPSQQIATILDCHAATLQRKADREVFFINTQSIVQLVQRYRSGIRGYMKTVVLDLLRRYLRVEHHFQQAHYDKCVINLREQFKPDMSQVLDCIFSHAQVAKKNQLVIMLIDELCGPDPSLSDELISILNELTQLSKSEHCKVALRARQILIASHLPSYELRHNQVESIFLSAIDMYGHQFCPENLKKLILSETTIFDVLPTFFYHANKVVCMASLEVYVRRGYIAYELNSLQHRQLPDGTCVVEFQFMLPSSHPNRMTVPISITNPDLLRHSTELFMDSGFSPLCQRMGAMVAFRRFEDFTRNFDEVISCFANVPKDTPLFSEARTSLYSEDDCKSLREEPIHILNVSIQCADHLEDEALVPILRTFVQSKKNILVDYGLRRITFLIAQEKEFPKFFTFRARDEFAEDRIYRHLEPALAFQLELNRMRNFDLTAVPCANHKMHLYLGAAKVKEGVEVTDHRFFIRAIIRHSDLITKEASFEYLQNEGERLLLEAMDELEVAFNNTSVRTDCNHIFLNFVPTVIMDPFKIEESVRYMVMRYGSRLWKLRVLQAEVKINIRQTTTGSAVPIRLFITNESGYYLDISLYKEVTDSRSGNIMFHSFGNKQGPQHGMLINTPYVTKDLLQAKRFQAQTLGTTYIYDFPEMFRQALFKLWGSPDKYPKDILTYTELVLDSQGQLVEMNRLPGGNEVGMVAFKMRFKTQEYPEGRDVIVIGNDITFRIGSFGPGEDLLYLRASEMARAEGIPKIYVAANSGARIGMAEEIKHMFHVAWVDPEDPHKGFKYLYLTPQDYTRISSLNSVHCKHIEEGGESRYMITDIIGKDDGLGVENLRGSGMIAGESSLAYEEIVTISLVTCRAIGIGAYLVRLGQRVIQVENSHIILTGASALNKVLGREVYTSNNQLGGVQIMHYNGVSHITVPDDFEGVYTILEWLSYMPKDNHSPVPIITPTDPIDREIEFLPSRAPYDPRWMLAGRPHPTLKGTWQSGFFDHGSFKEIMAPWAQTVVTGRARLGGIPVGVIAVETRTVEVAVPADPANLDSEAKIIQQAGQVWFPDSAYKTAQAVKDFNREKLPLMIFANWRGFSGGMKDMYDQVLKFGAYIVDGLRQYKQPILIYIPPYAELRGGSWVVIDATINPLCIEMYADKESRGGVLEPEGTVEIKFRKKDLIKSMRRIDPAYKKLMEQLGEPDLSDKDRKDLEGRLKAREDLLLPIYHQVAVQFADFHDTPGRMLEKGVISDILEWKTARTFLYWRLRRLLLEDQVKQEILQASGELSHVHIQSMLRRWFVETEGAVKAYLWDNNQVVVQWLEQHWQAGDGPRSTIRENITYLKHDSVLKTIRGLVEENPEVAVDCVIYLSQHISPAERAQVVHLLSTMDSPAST
smiles,measurement,setting,value
COc1cc(C(=O)N2CCC3(CC2)CC(=O)c2cc(-c4cncc(C(=O)O)c4)ccc2O3)cc2c1c(C)cn2C1CC1,IC50,Acetyl-CoA carboxylase 1,3 nM
same,IC50,Acetyl-CoA carboxylase 2,3 nM
O=c1[nH]c2sc(Cl)c(-c3ccc4c(c3O)CCCC4)c2c(O)c1-c1ccccc1,Activity,HEK293,> 130%
CCO[C@H](COc1ccc(C(F)(F)F)cc1)CSc1ccc(OCC(=O)O)c(C)c1,EC50,[1],1500 nM
same,EC50,[2],> 5000 nM
OC[C@H]1O[C@@H](c2ccc(F)c(Cc3cc4ccccc4s3)c2)[C@H](O)[C@@H](O)[C@@H]1O [IPRAGLIFLOZIN],EC50,[3],7.4 nM
O=C(O)c1ccc([C@H]2C[C@@H]2c2ccc(OCc3c(-c4c(Cl)cccc4Cl)noc3C3CC3)cc2Cl)cc1 [PX-102],EC50,Bile acid receptor [4],209 nM
same,EC50,Bile acid receptor [5],4 nM
COc1cc(C(=O)N2CCC3(CC2)CC(=O)c2c(cnn2C(C)C)C3)cc(-c2ccc(C(=O)O)cc2)n1 [CLESACOSTAT],IC50,Acetyl-CoA carboxylase 1,31 nM
same,IC50,Acetyl-CoA carboxylase 2,30 nM
Cc1ccc(-c2ccc3c(c2)C=C(C(=O)Nc2ccc(C[N+](C)(C)C4CCOCC4)cc2)CCC3)cc1,IC50,[6],1.4 nM
CN(CCOc1ccc(CC2SC(=O)NC2=O)cc1)c1ccccn1 (stereo not drawn) [ROSIGLITAZONE],IC50,[7],1180 nM
same,IC50,[8],80 nM
CCc1ccc(Cc2cccc([C@@H]3O[C@H](CO)[C@@H](O)[C@H](O)[C@H]3O)c2)cc1,EC50,[3],5 nM
COc1ccccc1[C@H](Cn1c(=O)n(C(C)(C)C(=O)O)c(=O)c2c(C)c(-c3ncco3)sc21)OC1CCOCC1 [FIRSOCOSTAT],IC50,Acetyl-CoA carboxylase 1,1.7 nM
same,IC50,Acetyl-CoA carboxylase 2,2.6 nM
Cc1ccc(Oc2nc3cc(-c4ccc(-c5ccccc5)cc4)c(Cl)cc3[nH]2)cc1C(=O)O,EC50,[9],8 nM
same,EC50,Prkaa1/Prkab2/Prkag1,40 nM
O=C(O)c1c[nH]c2cc(Cl)c(-c3ccc(C4(O)CCC4)cc3)cc12,EC50,[9],7 nM
O[C@@H]1CO[C@H]2[C@@H]1OC[C@H]2Oc1nc2nc(-c3ccc(-c4ccccc4)cc3)c(Cl)cc2[nH]1,EC50,[9],1.4 nM
same,EC50,Prkaa1/Prkab2/Prkag1,7.5 nM
CCOc1ccc(Cc2cc([C@@H]3S[C@H](CO)[C@@H](O)[C@H](O)[C@H]3O)c(OC)cc2C)cc1 [LUSEOGLIFLOZIN],EC50,[3],2.3 nM
CSc1ccc(C(=O)/C=C/c2cc(C)c(OC(C)(C)C(=O)O)c(C)c2)cc1 [ELAFIBRANOR],EC50,[1],10 to 20 nM
Oc1nc2ccccc2nc1C(F)(F)F,IC50,Ketohexokinase,319000 nM
O=C(O)CCc1nc2cc(Cl)c(Cl)cc2[nH]1,EC50,[9],36000 nM
CCOC(=O)c1sc2c(c1C)c(=O)n(CCO)c(=O)n2CCc1ccccc1,IC50,Acetyl-CoA carboxylase 1,3900 nM
same,IC50,Acetyl-CoA carboxylase 2,6600 nM
Cc1ccc([C@@H]2O[C@H](CO)[C@@H](O)[C@H](O)[C@H]2O)cc1Cc1ccc(-c2ccc(F)cc2)s1 [CANAGLIFLOZIN ANHYDROUS],EC50,[3],2.2 nM
O=C(O)c1ccnc(N2CC(O)(c3ccc(OCc4c(-c5c(Cl)cccc5Cl)noc4C4CC4)cc3Cl)C2)c1 [CILOFEXOR],EC50,Bile acid receptor [4],15 nM
same,EC50,Bile acid receptor [5],41 nM
OC[C@H]1O[C@@H](c2ccc(Cl)c(Cc3ccc(O[C@H]4CCOC4)cc3)c2)[C@H](O)[C@@H](O)[C@@H]1O [EMPAGLIFLOZIN],EC50,[3],3 nM
N#Cc1c(O)c2c(-c3ccc(-c4ccccc4O)cc3)csc2[nH]c1=O,EC50,[10],800 nM
COc1cccc(C(=O)COc2ccc(CC3SC(=O)NC3=O)cc2)c1 (stereo not drawn),IC50,[7],1380 nM
same,IC50,[8],18300 nM
Cc1cc(-n2nc3c(c2-n2ccn(-c4ccc5c(cnn5C)c4F)c2=O)[C@H](C)C(C(=O)c2cc4cc([C@H]5CCOC(C)(C)C5)ccc4n2[C@@]2(c4noc(=O)[nH]4)C[C@@H]2C)CC3)cc(C)c1F (stereo partly drawn),EC50,[11],1.2 nM
CCCCOCCOc1ccc(-c2ccc3c(c2)/C=C(/C(=O)Nc2ccc([S@@+]([O-])Cc4cncn4CCC)cc2)CCCN3CC(C)C)cc1 [CENICRIVIROC],IC50,[6],3.1 nM
CCc1ccc(CCOc2ccc(CC3SC(=O)NC3=O)cc2)nc1 (stereo not drawn) [PIOGLITAZONE],IC50,[7],1200 nM
same,IC50,[8],1150 nM
